Assay results from US20130190407A1, “CALCIUM RECEPTOR-ACTIVE MOLECULES” (NPS Pharmaceuticals, Inc., priority 1991, published 2013).

Target: T1, human parathyroid cell calcium receptor (Homo sapiens, UniProt P41180, E1011Q/Q926R)
T1 construct: appear to be full-length clones corresponding to the 5 Kb mRNA; expressed in transfected cells; host or cells: Xenopus laevis oocytes injected with pHuPCaR 5.2
T1 sequence (P41180 20-1088 isoform P41180-2 Q936R/E1021Q): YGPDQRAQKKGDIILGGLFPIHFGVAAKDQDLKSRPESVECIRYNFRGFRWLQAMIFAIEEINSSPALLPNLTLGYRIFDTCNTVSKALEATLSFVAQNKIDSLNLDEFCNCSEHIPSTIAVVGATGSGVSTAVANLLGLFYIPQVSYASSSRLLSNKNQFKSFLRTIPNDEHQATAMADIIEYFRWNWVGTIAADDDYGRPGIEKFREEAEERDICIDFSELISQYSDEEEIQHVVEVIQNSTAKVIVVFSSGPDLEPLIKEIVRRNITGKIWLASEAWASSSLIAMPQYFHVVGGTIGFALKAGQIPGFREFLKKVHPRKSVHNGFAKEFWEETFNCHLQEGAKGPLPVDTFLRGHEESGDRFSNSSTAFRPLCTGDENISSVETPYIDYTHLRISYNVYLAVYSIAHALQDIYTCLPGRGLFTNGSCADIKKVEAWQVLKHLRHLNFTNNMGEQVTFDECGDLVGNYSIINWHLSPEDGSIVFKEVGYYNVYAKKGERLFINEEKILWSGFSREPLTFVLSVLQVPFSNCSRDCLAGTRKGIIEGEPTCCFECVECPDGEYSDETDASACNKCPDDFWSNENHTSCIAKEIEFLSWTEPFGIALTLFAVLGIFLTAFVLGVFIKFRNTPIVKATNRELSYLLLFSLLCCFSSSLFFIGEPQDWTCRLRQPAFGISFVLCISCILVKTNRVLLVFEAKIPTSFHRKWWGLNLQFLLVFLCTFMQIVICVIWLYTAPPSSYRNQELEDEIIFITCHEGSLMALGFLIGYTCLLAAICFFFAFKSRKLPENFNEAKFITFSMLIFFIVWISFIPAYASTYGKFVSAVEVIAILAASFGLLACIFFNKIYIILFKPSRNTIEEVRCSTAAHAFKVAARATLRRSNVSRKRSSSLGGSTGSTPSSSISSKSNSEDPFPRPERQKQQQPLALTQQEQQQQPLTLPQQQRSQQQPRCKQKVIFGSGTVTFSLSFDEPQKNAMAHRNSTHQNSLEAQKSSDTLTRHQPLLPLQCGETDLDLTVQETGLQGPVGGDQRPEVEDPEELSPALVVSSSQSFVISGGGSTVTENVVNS
Assay: Cl- current in Xenopus oocytes injected with pHuPCaR 5.2
Format: cell-based
Conditions: 3 to 30 μM; 0.3 mM extracellular Ca2+
Procedure: Xenopus oocytes were injected with pHuPCaR 5.2, the 5.2 Kb cDNA encoding a parathyroid cell calcium receptor derived from a human parathyroid cell adenoma. (See Example 27.) After two to three days, Cl^− currents were measured in the oocytes using a two-electrode voltage clamp.

COc1cccc([C@@H](C)NCCCc2ccccc2Cl)c1 [NPS R-568, (R)-(+)-N-[3-(2-chlorophenyl)propyl]-α-methyl-3-methoxybenzylamine]
Cl- current: evoked increases in the Cl^− current
